Measurements reported in patent US9802894B2, “α-glucosidase inhibitors” (priority 2015, dated 2017).

Key:
[1] = biological target: α-Glucosidase from Saccharomyces cervisiae; type: biochemical; settings: in vitro; phosphate buffer pH 6.8, 37° C., substrate 0.7 mM, absorbance at 400 nm; read-out: α-Glucosidase Inhibition (IC50 in μM)
Protocol: Assay Protocol for α-Glucosidase Inhibition (In Vitro α-Glucosidase Inhibition Assay)
α-Glucosidase inhibition assay was performed spectrophotometrically. α-Glucosidase from Saccharomyces cervisiae was dissolved in phosphate buffer (pH 6.8, 50 mM). Test compounds were dissolved in 70% DMSO. In 96-well plates, 20 μL of test sample, 20 μL of enzyme and 135 μL of buffer were added and incubated for 15 minutes at 37° C. After incubation, 25 μL, of p-nitrophenyl-α-D-glucopyranoside (0.7 mM, Sigma Aldrich) was added and the change in absorbance was monitored for 30 minutes at 400 nm. Test compound was replaced by DMSO (7.5% final) as control. Acarbose (Acarbose, Sigma Aldrich) was used as a standard inhibitor.

Row | SMILES | IC50 [1] [µM] | melting point [°C]
1 | Cc1ccc([C@H](CC(=O)c2ccccc2)c2c[nH]c3ccccc23)cc1 [Compound 3d, (S)-3-(1H-Indol-3-yl)-1-phenyl-3-(p-tolyl)propan-1-one] | 24 ± 4 | 153 to 155
2 | COc1ccc([C@H](CC(=O)c2ccc3ccccc3c2)c2c[nH]c3ccccc23)cc1 [Compound 3f, (S)-3-(1H-Indol-3-yl)-3-(4-methoxyphenyl)-1-(naphthalen-2-yl)propan-1-one] | 15.2 ± 0.58 | 159 to 162
3 | O=C(C[C@@H](c1ccccc1)c1c[nH]c2ccccc12)c1ccccc1 [Compound 3a, (S)-3 (1H-Indol-3-yl)-1,3-diphenylpropan-1-one] | 43.3 ± 0.92 | –
4 | Cc1cc(C)c([C@H](CC(=O)c2ccc3ccccc3c2)c2c[nH]c3ccccc23)c(C)c1 [Compound 3i, (S)-3-(1H-Indol-3-yl)-3-mesityl-1-(naphthalen-2-yl)propan-1-one] | 15.1 ± 0.4 | 227 to 229
5 | O=C(C[C@@H](c1ccc(Cl)cc1)c1c[nH]c2ccccc12)c1ccccc1 [Compound 3h, (S)-3-(4-Chlorophenyl)-3-(1H-indol-3-yl)-1-phenylpropan-1-one] | 37.9 ± 0.86 | 189 to 192
6 | Cc1cccc(C(CC(=O)c2ccccc2)c2c[nH]c3ccccc23)c1 (stereo not shown) [Compound 3n, 3-(1H-indol-3-yl)-1-phenyl-3-(m-tolyl)propan-1-one] | 26.3 ± 0.48 | 130 to 132
7 | O=C(CC(c1cccc(Br)c1)c1c[nH]c2ccccc12)c1ccccc1 (stereo not shown) [Compound 3r, 3-(3-bromophenyl)-3-(1H-indol-3-yl)-1-phenylpropan-1-one] | 33.2 ± 0.75 | 102 to 104
8 | O=C(CC(c1c(Cl)cccc1Cl)c1c[nH]c2ccccc12)c1ccccc1 (stereo not shown) [Compound 3m, 3-(2,6-dichlorophenyl)-3-(1H-indol-3-yl)-1-phenylpropan-1-one] | 4.3 ± 0.13 | 119 to 121
9 | O=C(C[C@@H](c1ccc(Cl)cc1)c1c[nH]c2ccccc12)c1ccc2ccccc2c1 [Compound 3b, (S)-3-(4-Chlorophenyl)-3-(1H-indol-3-yl)-1-(naphthalen-2-yl)propan-1-one] | 17.6 ± 0.98 | 237 to 241
10 | Cc1ccc([C@H](CC(=O)c2ccc3ccccc3c2)c2c[nH]c3ccccc23)cc1 [Compound 3j, (S)-3-(1H-Indol-3-yl)-1-(naphthalen-2-yl)-3-(p-tolyl)propan-1-one] | 18.1 ± 1.9 | 174 to 177
11 | O=C(CC(c1cccc([N+](=O)[O-])c1)c1c[nH]c2ccccc12)c1ccccc1 (stereo not shown) [Compound 3p, 3-(1H-indol-3-yl)-3-(3-nitrophenyl)-1-phenylpropan-1-one] | 34.6 ± 1.55 | 105 to 107
12 | O=C(CC(c1cccs1)c1c[nH]c2ccccc12)c1ccc2ccccc2c1 (stereo not shown) [Compound 3o, 3-(1H-indol-3-yl)-1-(naphthalen-2-yl)-3-(thiophen-2-yl)propan-1-one] | 11.8 ± 0.06 | –
13 | O=C(C[C@@H](c1ccccc1)c1c[nH]c2ccccc12)c1ccc2ccccc2c1 [Compound 3g, (S)-3-(1H-Indol-3-yl)-1-(naphthalen-2-yl)-3-phenylpropan-1-one] | 43.9 ± 0.51 | 166 to 169
14 | COc1ccc([C@H](CC(=O)c2ccccc2)c2c[nH]c3ccccc23)cc1 [Compound 3e, (S)-3-(1H-Indol-3-yl)-3-(4-methoxyphenyl)-1-phenylpropan-1-one] | 27.1 ± 0.69 | 134 to 136
15 | O=C(C[C@@H](c1cccs1)c1c[nH]c2ccccc12)c1ccccc1 [Compound 3k, (R)-3-(1H-Indol-3-yl)-1-phenyl-3-(thiophen-2-yl)propan-1-one] | 21.8 ± 0.25 | 112 to 115
16 | O=C(CC(c1ccc(Br)cc1)c1c[nH]c2ccccc12)c1ccccc1 (stereo not shown) [Compound 3q, 3-(4-bromophenyl)-3-(1H-indol-3-yl)-1-phenylpropan-1-one] | 24.9 ± 1.61 | 95 to 97
17 | Cc1cc(C)c([C@H](CC(=O)c2ccccc2)c2c[nH]c3ccccc23)c(C)c1 [Compound 3c, (S)-3-(1H-Indol-3-yl)-3-mesityl-1-phenylpropan-1-one] | 25.2 ± 1.96 | 169 to 171
18 | O=C(CC(c1ccc(Cl)cc1Cl)c1c[nH]c2ccccc12)c1ccccc1 (stereo not shown) [Compound 3l, 3-(2,4-dichlorophenyl)-3-(1H-indol-3-yl)-1-phenylpropan-1-one] | 15.6 ± 0.17 | 110 to 112
